In ChEMBL document CHEMBL5046255, “Design and synthesis of dual inhibitors targeting snail and histone deacetylase for the treatment of solid tumour cancer” (Eur J Med Chem, 2022):

Tests used:
[1] = system: HCT-116; test: Antiproliferative activity against human HCT-116 cells assessed as cell viability at 1 uM incubated for 72 hrs by luminescence assay; format: functional, cell-based; settings: for viability at 1 µM: HCT-116, dose 1 µM, time 72 hrs, read-out: Activity; for IC50: HCT-116, 72 h
[2] = target: Histone deacetylase 1 (Homo sapiens, UniProt Q13547); test: Inhibition of HDAC1 (unknown origin) using p53 (379 to 382 residues) (RHKK(Ac-AMC) as fluorogenic substrate incubated for 1 hrs by fluorescence based assay
[3] = Binding affinity to SNAI1 (unknown origin) assessed as dissociation constant; set-up: species or system Homo sapiens
[4] = system: HCT-116; test: Antiproliferative activity against human HCT-116 cells assessed as reduction in cell viability incubated for 72 hrs by luminescence assay; format: functional, cell-based; settings: HCT-116, 72 h
[5] = Metabolic stability in rat plasma assessed as half life at 100 uM measured upto 120 mins by LC-MS/MS analysis; format: ADME, cell-free
[6] = Metabolic stability in rat plasma assessed as parent compound remaining at 100 uM measured after 2 hrs by LC-MS/MS analysis; format: ADME, cell-free; settings: read-out: Stability
[7] = Metabolic stability in monkey plasma assessed as parent compound remaining at 100 uM measured after 2 hrs by LC-MS/MS analysis; format: ADME, cell-free, Macaca mulatta; settings: rhesus monkey, read-out: Stability
[8] = Metabolic stability in human liver microsomes assessed as half life incubated for 10 mins by LC-MS/MS analysis; format: ADME, Microsome
[9] = Metabolic stability in dog plasma assessed as parent compound remaining at 100 uM measured after 2 hrs by LC-MS/MS analysis; format: ADME, cell-free, Canis lupus familiaris; settings: read-out: Stability
[10] = Metabolic stability in dog liver microsomes assessed as half life incubated for 10 mins by LC-MS/MS analysis; format: ADME, Canis lupus familiaris, Microsome
[11] = Metabolic stability in rat liver microsomes assessed as intrinsic clearance incubated for 10 mins by LC-MS/MS analysis; format: ADME, Microsome; settings: read-out: CLH
[12] = Metabolic stability in rat liver microsomes assessed as half life incubated for 10 mins by LC-MS/MS analysis; format: ADME, Microsome
[13] = Metabolic stability in dog plasma assessed as half life at 100 uM measured upto 120 mins by LC-MS/MS analysis; format: ADME, cell-free, Canis lupus familiaris
[14] = Metabolic stability in monkey liver microsomes assessed as half life incubated for 10 mins by LC-MS/MS analysis; format: ADME, Macaca mulatta, Microsome; settings: rhesus monkey
[15] = Metabolic stability in monkey liver microsomes assessed as intrinsic clearance incubated for 10 mins by LC-MS/MS analysis; format: ADME, Macaca mulatta, Microsome; settings: rhesus monkey, read-out: CLH
[16] = Metabolic stability in dog liver microsomes assessed as intrinsic clearance incubated for 10 mins by LC-MS/MS analysis; format: ADME, Canis lupus familiaris, Microsome; settings: read-out: CLH
[17] = Metabolic stability in human plasma assessed as parent compound remaining at 100 uM measured after 2 hrs by LC-MS/MS analysis; format: ADME, cell-free; settings: read-out: Stability
[18] = Metabolic stability in human liver microsomes assessed as intrinsic clearance incubated for 10 mins by LC-MS/MS analysis; format: ADME, Microsome; settings: read-out: CLH

Chain of Histone deacetylase 1 (Q13547 whole entry, the tested form may be a part): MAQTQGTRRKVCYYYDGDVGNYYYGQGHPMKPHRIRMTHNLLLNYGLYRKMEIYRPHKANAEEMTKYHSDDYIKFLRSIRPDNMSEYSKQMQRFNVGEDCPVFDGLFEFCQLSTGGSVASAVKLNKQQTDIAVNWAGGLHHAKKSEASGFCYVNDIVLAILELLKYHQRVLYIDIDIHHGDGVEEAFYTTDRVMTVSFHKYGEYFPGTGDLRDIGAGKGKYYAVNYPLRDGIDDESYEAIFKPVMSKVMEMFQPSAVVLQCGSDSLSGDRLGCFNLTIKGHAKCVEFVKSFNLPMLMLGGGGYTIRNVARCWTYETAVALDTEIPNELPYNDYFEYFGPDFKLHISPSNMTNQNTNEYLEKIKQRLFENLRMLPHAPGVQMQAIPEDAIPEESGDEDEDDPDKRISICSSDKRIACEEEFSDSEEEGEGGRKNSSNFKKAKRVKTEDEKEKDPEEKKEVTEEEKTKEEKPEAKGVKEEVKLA

SMILES | viability at 1 µM [1] [%] | IC50 [2] [nM] | Kd [3] [nM] | IC50 [1] [nM] | also measured
Nc1ccccc1NC(=O)c1ccc(CSc2nc(Nc3cc[nH]n3)c3cccn3n2)cc1 | 60.3 | 148 | 984 |  | IC50 [4]: 1550 nM
CC(C)(C)OC(=O)N1CCC(Nc2nc(SCc3ccc(C(=O)Nc4ccc(F)cc4N)cc3)nn3cccc23)CC1 | 105 | 4500 |  |  | 
Nc1ccccc1NC(=O)c1ccc(CSc2nc(NCc3ccc(F)cc3)c3cccn3n2)cc1 | 83.1 | 481 |  |  | 
Nc1ccccc1NC(=O)c1ccc(CSc2nc(NC3CCNCC3)c3cccn3n2)cc1 | 78.5 | 493 |  |  | 
CC(C)(C)c1cc(Nc2nc(SCc3ccc(C(=O)Nc4ccccc4N)cc3)nn3cccc23)n[nH]1 | 96.1 | 238 |  |  | 
COc1ccc(CNc2nc(SCc3ccc(C(=O)Nc4ccccc4N)cc3)nn3cccc23)cc1 |  | 392 | 356 | 292 | 
Cc1cc(Nc2nc(SCc3ccc(C(=O)Nc4ccccc4N)cc3)nn3cccc23)n[nH]1 |  | 152 | 562 | 959 | 
COc1ccc(CNc2nc(SCc3ccc(C(=O)Nc4ccccc4N)cc3)nn3cccc23)cc1OC | 73.9 | 406 |  |  | 
CC(C)(C)OC(=O)N1CCC(Nc2nc(SCc3ccc(C(=O)Nc4ccccc4N)cc3)nn3cccc23)CC1 | 103 | 871 |  |  | 
Nc1ccccc1NC(=O)c1ccc(CSc2nc(NCc3ccc(C(F)(F)F)cc3)c3cccn3n2)cc1 | 102 | 1730 |  |  | 
Cc1cccnc1Nc1nc(SCc2ccc(C(=O)Nc3ccccc3N)cc2)nn2cccc12 |  | 204 | 945 | 1370 | 
COc1ccc(CNc2nc(SCc3ccc(C(=O)Nc4ccc(F)cc4N)cc3)nn3cccc23)c(OC)c1 | 92.5 | > 10000 |  |  | 
CC(C)(C)c1cc(Nc2nc(SCc3ccc(C(=O)Nc4ccc(F)cc4N)cc3)nn3cccc23)n[nH]1 | 108 | 1540 |  |  | 
Nc1cc(F)ccc1NC(=O)c1ccc(CSc2nc(NCc3ccc(C(F)(F)F)cc3)c3cccn3n2)cc1 | 107 | > 10000 |  |  | 
COc1ccc(CNc2nc(SCc3ccc(C(=O)Nc4ccccc4N)cc3)nn3cccc23)c(OC)c1 | 92.5 | 336 |  |  | 
COc1ccc(CNc2nc(SCc3ccc(C(=O)Nc4ccc(F)cc4N)cc3)nn3cccc23)cc1 |  | 5040 | 514 | 997 | 
Nc1ccccc1NC(=O)c1ccc(CSc2nc(N3CCOCC3)c3cccn3n2)cc1 |  | 204 | 905 | 1090 | 
Nc1cc(F)ccc1NC(=O)c1ccc(CSc2nc(NC3CCNCC3)c3cccn3n2)cc1 | 95.8 | 2370 |  |  | 
Nc1cc(F)ccc1NC(=O)c1ccc(CSc2nc(N3CCOCC3)c3cccn3n2)cc1 |  | 2310 | 754 | 948 | 
Nc1cc(F)ccc1NC(=O)c1ccc(CNC(=O)/C=C/c2cccnc2)cc1 [TUCIDINOSTAT] |  |  | > 10000 | 2080 | half-life at 100 µM [5]: 8.83 h; remaining at 2 h, 100 µM [6]: 82.1%; remaining at 2 h, 100 µM [7]: 102%; half-life [8]: 6.27 h; remaining at 2 h, 100 µM [9]: 103%; half-life [10]: 8.37 h; microsomal CLint [11]: 7.35 µL/min/mg; half-life [12]: 3.17 h; half-life at 100 µM [13]: 16.3 h; half-life [14]: 2.05 h; microsomal CLint [15]: 11.2 µL/min/mg; microsomal CLint [16]: 2.76 µL/min/mg; remaining at 2 h, 100 µM [17]: 109%; microsomal CLint [18]: 4.18 µL/min/mg
Nc1cc(F)ccc1NC(=O)c1ccc(CSc2nc(NCc3ccc(F)cc3)c3cccn3n2)cc1 | 89.3 | > 10000 |  |  | 
Nc1cc(F)ccc1NC(=O)c1ccc(CSc2nc(Nc3cc[nH]n3)c3cccn3n2)cc1 |  | 595 | 426 | 731 | 
Cc1cccnc1Nc1nc(SCc2ccc(C(=O)Nc3ccc(F)cc3N)cc2)nn2cccc12 |  | 1320 | 875 | 857 | 
COc1ccc(CNc2nc(SCc3ccc(C(=O)Nc4ccc(F)cc4N)cc3)nn3cccc23)cc1OC | 73.9 | 8160 |  |  | 
